Measured values taken from patent US10231956B2, “3-(1H-pyrrolo[3,2-C]pyridin-2-YL)-1 H-pyrazolo[4,3-B]pyridines and therapeutic uses thereof” (Samumed, LLC, priority 2015, dated 2019).

Assays:
[1] = test system: primary human mesenchymal stem cells (hMSCs); assay: Induction of chondrogenesis in primary human mesenchymal stem cells (nodule count); type: cell-based; settings: 144 h, 6 days; for Emax: TGF-β3 10 ng/mL as positive control, read-out: Max. Activity as % TGF-β3 activity; for EC50: concentration required to induce 50% levels of chondrogenesis vs TGF-β3, read-out: Conc (nM) of 50% TGF-β3 activity
Protocol: Representative compounds were screened using primary human mesenchymal stem cells (hMSCs) to determine their ability to induce chondrogenesis (process by which cartilage is developed).
Human Mesenchymal Stem Cell Culture: Primary human mesenchymal stem cells (hMSCs) were purchased from Lonza (Walkersville, Md.) and expanded in Mesenchymal Stem Cell Growth Media (Lonza). Cells between passage 3 and 6 were used for the experiments.
Compound Screening: Each compound was dissolved in DMSO as a 10 mM stock and used to prepare compound source plates. Serial dilution (1:3, 6-point dose-response curves from 2700 nM to 10 nM) and compound transfer was performed using the ECHO 550 (Labcyte, Sunnyvale, Calif.) into 96-well clear bottom assay plates (Greiner Bio-One) with appropriate DMSO backfill for a final DMSO concentration of 0.03%. hMSCs were plated at 20,000 cells/well in 250 μL/well Incomplete Chondrogenic Induction Medium (Lonza; DMEM, dexamethasone, ascorbate, insulin-transferrin-selenium [ITS supplement], gentamycin-amphotericin [GA-1000], sodium pyruvate, proline and L-glutamine). TGF-β3 (10 ng/mL) was used as a positive control for differentiation while negative control wells were treated with 75 nL DMSO for normalization and calculating EC50 values. Cells were incubated at 37° C. and 5% CO2 for 6 days. To image chondrogenic nodules, the cells were fixed using 4% formaldehyde (Electron Microscopy Sciences), and stained with 2 μg/mL Rhodamine B (Sigma-Aldrich) and 20 μM Nile Red (Sigma-Aldrich) [Johnson K., et. al, A Stem Cell-Based Approach to Cartilage Repair, Science, (2012), 336(6082), 717-721]. The nodules imaged (4 images per well at 4× magnification) by excitation at 531 nm and emission at 625 nm and quantified using the CellInsight CX5 (Thermo Scientific). Number of nodules in each well was normalized to the average of 3 DMSO treated wells on the same plate using Excel (Microsoft Inc.). The normalized averages (fold change over DMSO) of 3 replicate wells for each compound concentration were calculated. Due to solubility limitations of some of the compounds, curve fitting was incomplete leading to inaccurate EC50 determinations.
Using TGF-β3 as a positive control, the concentration of representative compounds required to induce 50% levels of chondrogenesis is reported. In addition, the maximum activity of each compound and the respective dose that each compound reached maximum chondrogenesis activity is reported.

[2] = test system: Wnt activity (Sp5-Luc reporter, SW480 colon carcinoma cells); assay: Sp5-Luc reporter gene screening assay for Wnt activity in SW480 cells; type: cell-based; settings: Homo sapiens; for EC50: luminescence, overnight incubation; for inhibition at 10 µM: given for EC50 >10 μM, read-out: percent inhibition at 10 μM
In short: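 First, hygromycin-selected SW480 Sp5-Luc reporter cells are seeded in medium with 1% fetal bovine serum and exposed overnight to compound (up to 10 μM, 0.1% DMSO). Next, luciferase signal is read by luminescence. Finally, EC50 is fitted, or percent inhibition at 10 μM is reported above 10 μM.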

Row | EC50 [2] [nM] | EC50 [1] [nM] | Compound | Emax [1] [%] | inhibition at 10 µM [2] [%]
1 | 687 | – | O=C(Nc1cncc(-c2ccc3[nH]nc(-c4cc5c(-c6ccccc6F)nccc5[nH]4)c3n2)c1)C1CC1 [Compound 76, N-(5-(3-(4-(2-Fluorophenyl)-1H-pyrrolo[3,2-c]pyridin-2-yl)-1H-pyrazolo [4,3-b]pyridin-5-yl)pyridin-3-yl)cyclopropanecarboxamide] | 25 | –
2 | 1210 | – | CN(C)Cc1cncc(-c2ccc3[nH]nc(-c4cc5c(-c6ccccc6F)nccc5[nH]4)c3n2)c1 [Compound 69, 1-(5-(3-(4-(2-Fluorophenyl)-1H-pyrrolo[3,2-c]pyridin-2-yl)-1H-pyrazolo [4,3-b]pyridin-5-yl)pyridin-3-yl)-N,N-dimethylmethanamine] | 7 | –
3 | > 10000 | – | O=C(CC1CCNCC1)Nc1cncc(-c2ccc3[nH]nc(-c4cc5c(N6CCCCC6)nccc5[nH]4)c3n2)c1 [Compound 609, N-(5-(3-(4-(Piperidin-1-yl)-1H-pyrrolo[3,2-c]pyridin-2-yl)-1H-pyrazolo[4,3-b]pyridin-5-yl)pyridin-3-yl)-2-(piperidin-4-yl)acetamide] | 22 | 13.3
4 | 3600 | 30 | FC1(F)CCN(Cc2cncc(-c3ccc4[nH]nc(-c5cc6c(N7CCCCC7)nccc6[nH]5)c4n3)c2)C1 [Compound 194, 5-(5-((3,3-Difluoropyrrolidin-1-yl)methyl)pyridin-3-yl)-3-(4-(piperidin-1-yl)-1H-pyrrolo[3,2-c]pyridin-2-yl)-1H-pyrazolo[4,3-b]pyridine] | 123 | –
5 | 2140 | – | CS(=O)(=O)NCc1cc(F)cc(-c2nccc3[nH]c(-c4n[nH]c5ccc(-c6ccccn6)nc45)cc23)c1 [Compound 504, N-(3-Fluoro-5-(2-(5-(pyridin-2-yl)-1H-pyrazolo[4,3-b]pyridin-3-yl)-1H-pyrrolo[3,2-c]pyridin-4-yl)benzyl)methanesulfonamide] | 24 | –
6 | 1690 | 30 | CN(C)Cc1cncc(-c2ccc3[nH]nc(-c4cc5cnccc5[nH]4)c3n2)c1 [Compound 265, 1-(5-(3-(1H-Pyrrolo[3,2-c]pyridin-2-yl)-1H-pyrazolo[4,3-b]pyridin-5-yl)pyridin-3-yl)-N,N-dimethylmethanamine] | 119 | –
7 | 649 | – | CC(C)CC(=O)Nc1cncc(-c2ccc3[nH]nc(-c4cc5c(-c6ccccc6F)nccc5[nH]4)c3n2)c1 [Compound 58, N-(5-(3-(4-(2-Fluorophenyl)-1H-pyrrolo[3,2-c]pyridin-2-yl)-1H-pyrazolo [4,3-b]pyridin-5-yl)pyridin-3-yl)-3-methylbutanamide] | 36 | –
8 | 52 | 300 | FC1(F)CCN(Cc2cncc(-c3ccc4[nH]nc(-c5cc6cnccc6[nH]5)c4n3)c2)C1 [Compound 278, 5-(5-((3,3-Difluoropyrrolidin-1-yl)methyl)pyridin-3-yl)-3-(1H-pyrrolo[3,2-c]pyridin-2-yl)-1H-pyrazolo[4,3-b]pyridine] | 134 | –
9 | 502 | 10 | CS(=O)(=O)NCc1cc(F)cc(-c2nccc3[nH]c(-c4n[nH]c5ccc(-c6cncc(CN7CCC(F)(F)C7)c6)nc45)cc23)c1 [Compound 502, N-(3-(2-(5-(5-((3,3-Difluoropyrrolidin-1-yl)methyl)pyridin-3-yl)-1H-pyrazolo[4,3-b]pyridin-3-yl)-1H-pyrrolo[3,2-c]pyridin-4-yl)-5-fluorobenzyl) methanesulfonamide] | 148 | –
10 | 4280 | 10 | CN1CCN(c2nccc3[nH]c(-c4n[nH]c5ccc(-c6cncc(CN7CCCCC7)c6)nc45)cc23)CC1 [Compound 239, 3-(4-(4-methylpiperazin-1-yl)-1H-pyrrolo[3,2-c]pyridin-2-yl)-5-(5-(piperidin-1-ylmethyl)pyridin-3-yl)-1H-pyrazolo[4,3-b]pyridine] | 71 | –
11 | 3910 | – | c1cc2[nH]c(-c3n[nH]c4ccc(-c5cncc(OCCN6CCCC6)c5)nc34)cc2cn1 [Compound 658, 5-(5-(2-(Pyrrolidin-1-yl)ethoxy)pyridin-3-yl)-3-(1H-pyrrolo[3,2-c]pyridin-2-yl)-1H-pyrazolo[4,3-b]pyridine] | 23 | –
12 | 3070 | 100 | CN1CCN(c2nccc3[nH]c(-c4n[nH]c5ccc(-c6cncnc6)nc45)cc23)CC1 [Compound 251, 3-(4-(4-Methylpiperazin-1l-yl)-1H-pyrrolo[3,2-c]pyridin-2-yl)-5-(pyrimidin-5-yl)-1H-pyrazolo[4,3-b]pyridine] | 56 | –
13 | 1310 | 900 | CS(=O)(=O)NCc1cc(F)cc(-c2nccc3[nH]c(-c4n[nH]c5ccc(-c6cncc(NC(=O)C7CCCC7)c6)nc45)cc23)c1 [Compound 498, N-(5-(3-(4-(3-Fluoro-5-(methylsulfonamidomethyl)phenyl)-1H-pyrrolo[3,2-c]pyridin-2-yl)-1H-pyrazolo[4,3-b]pyridin-5-yl)pyridin-3-yl)cyclopentanecarboxamide] | 50 | –
14 | 828 | 2700 | Cc1ccncc1-c1ccc2[nH]nc(-c3cc4c(N5CCN(C)CC5)nccc4[nH]3)c2n1 [Compound 229, 3-(4-(4-Methylpiperazin-1l-yl)-1H-pyrrolo[3,2-c]pyridin-2-yl)-5-(4-methylpyridin-3-yl)-1H-pyrazolo[4,3-b]pyridine] | 87 | –
15 | 745 | 2700 | CS(=O)(=O)NCc1cc(F)cc(-c2nccc3[nH]c(-c4n[nH]c5ccc(-c6cncnc6)nc45)cc23)c1 [Compound 503, N-(3-Fluoro-5-(2-(5-(pyrimidin-5-yl)-1H-pyrazolo[4,3-b]pyridin-3-yl)-1H-pyrrolo [3,2-c]pyridin-4-yl)benzyl)methanesulfonamide] | 51 | –
16 | > 10000 | 10 | CS(=O)(=O)NCc1cc(F)cc(-c2nccc3[nH]c(-c4n[nH]c5ccc(-c6cncc(NC(=O)Cc7ccccc7)c6)nc45)cc23)c1 [Compound 486, N-(5-(3-(4-(3-Fluoro-5-(methylsulfonamidomethyl)phenyl)-1H-pyrrolo[3,2-c]pyridin-2-yl)-1H-pyrazolo[4,3-b]pyridin-5-yl)pyridin-3-yl)-2-phenylacetamide] | 110 | 19.3
17 | 1490 | – | Fc1cccc(-c2nccc3[nH]c(-c4n[nH]c5ccc(-c6cccnc6)nc45)cc23)c1 [Compound 4, 3-(4-(3-Fluorophenyl)-1H-pyrrolo[3,2-c]pyridin-2-yl)-5-(pyridin-3-yl)-1H-pyrazolo[4,3-b]pyridine] | 45 | –
18 | 2350 | 2700 | c1cc2[nH]c(-c3n[nH]c4ccc(-c5cncnc5)nc34)cc2cn1 [Compound 279, 5-(Pyrimidin-5-yl)-3-(1H-pyrrolo[3,2-c]pyridin-2-yl)-1H-pyrazolo[4,3-b]pyridine] | 53 | –
19 | 3380 | 100 | c1ccc(-c2ccc3[nH]nc(-c4cc5c(N6CCCCC6)nccc5[nH]4)c3n2)nc1 [Compound 196, 3-(4-(Piperidin-1-yl)-1H-pyrrolo[3,2-c]pyridin-2-yl)-5-(pyridin-2-yl)-1H-pyrazolo[4,3-b]pyridine] | 102 | –
20 | 2660 | 10 | c1cc2[nH]c(-c3n[nH]c4ccc(-c5cncc(OC6CCCCC6)c5)nc34)cc2c(N2CCCCC2)n1 [Compound 607, 5-(5-(Cyclohexyloxy)pyridin-3-yl)-3-(4-(piperidin-1-yl)-1H-pyrrolo[3,2-c]pyridin-2-yl)-1H-pyrazolo[4,3-b]pyridine] | 163 | –
21 | 411 | – | c1cncc(-c2ccc3[nH]nc(-c4cc5c(N6CCCCC6)nccc5[nH]4)c3n2)c1 [Compound 172, 3-(4-(Piperidin-1-yl)-1H-pyrrolo[3,2-c]pyridin-2-yl)-5-(pyridin-3-yl)-1H-pyrazolo[4,3-b]pyridine] | 29 | –
22 | 251 | 900 | c1cncc(-c2ccc3[nH]nc(-c4cc5cnccc5[nH]4)c3n2)c1 [Compound 256, 5-(Pyridin-3-yl)-3-(1H-pyrrolo[3,2-c]pyridin-2-yl)-1H-pyrazolo[4,3-b]pyridine] | 119 | –
